According to ChEMBL document CHEMBL1151694, “Efficient synthesis and biological evaluation of two modafinil analogues” (2008):
Activity calls are given as the source filed them. No cut-off for these calls is given here.

Tests used:
Cortex [1] = test: Effect on spontaneous [3H]5HT […] in Sprague-Dawley rat brain cortical slices at 0.1 to 30 uM measured after 45 mins of superfusion; type: functional, tissue-based
Cortex [2] = test: Effect on electrically-evoked [3H]5HT […] in Sprague-Dawley rat brain cortical slices administered 15 mins before electrical challenge after 85 mins of superfusion relative to control; type: functional, tissue-based
Cortex [3] = test: Effect on spontaneous [3H]5HT […] in Sprague-Dawley rat brain cortical slices at 1 to 30 uM measured after 45 mins of superfusion; type: functional, tissue-based
Cortex [4] = test: Effect on electrically-evoked [3H]5HT […] in Sprague-Dawley rat brain cortical slices administered 15 mins before electrical challenge at 30 uM after 85 mins of superfusion relative to control; type: functional
Cortex [5] = test: Effect on spontaneous [3H]5HT […] in Sprague-Dawley rat brain cortical slices at 0.1 to 100 uM measured after 45 mins of superfusion; type: functional, tissue-based
Cortex [6] = test: Effect on electrically-evoked [3H]5HT […] in Sprague-Dawley rat brain cortical slices administered 15 mins before electrical challenge at 100 uM after 85 mins of superfusion relative to control; type: functional, tissue-based

| SMILES | Activity (Cortex [1]) | Activity (Cortex [2]) | Activity (Cortex [3]) | Activity (Cortex [4]) [%] | Activity (Cortex [5]) | Activity (Cortex [6]) |
| --- | --- | --- | --- | --- | --- | --- |
| CC(C)NC(=O)CC(=O)C(c1ccccc1)c1ccccc1 | inactive | Dose-dependent effect |  |  |  |  |
| NC(=O)C[S+]([O-])C(c1ccccc1)c1ccccc1 (configuration not stated) [MODAFINIL] |  | Dose-dependent effect | inactive | 217 |  |  |
| NC(=O)CC(=O)C(c1ccccc1)c1ccccc1 |  |  |  |  | inactive | Active |
